Data: patent US9957247B2, “SecA inhibitors and methods of making and using thereof” (Georgia State University Research Foundation, Inc., priority 2012, dated 2018)
≈ marks a conversion by molar mass, not a printed value. Like-named read-outs stand apart in the source and are kept apart here.

Columns and labels:
BaSecA1 = BaSecA1 (Bacillus anthracis, UniProt Q81X26); assay: cell-based; details: read-out: IC50, Ion Channel activity, BGaSecA 1
SaSecA1 = target: T1, SaSecA1 (Staphylococcus aureus, UniProt O06446); details: read-out: IC50, Ion Channel activity, SaSecA1; Table 1
T1 sequence (O06446 1-843): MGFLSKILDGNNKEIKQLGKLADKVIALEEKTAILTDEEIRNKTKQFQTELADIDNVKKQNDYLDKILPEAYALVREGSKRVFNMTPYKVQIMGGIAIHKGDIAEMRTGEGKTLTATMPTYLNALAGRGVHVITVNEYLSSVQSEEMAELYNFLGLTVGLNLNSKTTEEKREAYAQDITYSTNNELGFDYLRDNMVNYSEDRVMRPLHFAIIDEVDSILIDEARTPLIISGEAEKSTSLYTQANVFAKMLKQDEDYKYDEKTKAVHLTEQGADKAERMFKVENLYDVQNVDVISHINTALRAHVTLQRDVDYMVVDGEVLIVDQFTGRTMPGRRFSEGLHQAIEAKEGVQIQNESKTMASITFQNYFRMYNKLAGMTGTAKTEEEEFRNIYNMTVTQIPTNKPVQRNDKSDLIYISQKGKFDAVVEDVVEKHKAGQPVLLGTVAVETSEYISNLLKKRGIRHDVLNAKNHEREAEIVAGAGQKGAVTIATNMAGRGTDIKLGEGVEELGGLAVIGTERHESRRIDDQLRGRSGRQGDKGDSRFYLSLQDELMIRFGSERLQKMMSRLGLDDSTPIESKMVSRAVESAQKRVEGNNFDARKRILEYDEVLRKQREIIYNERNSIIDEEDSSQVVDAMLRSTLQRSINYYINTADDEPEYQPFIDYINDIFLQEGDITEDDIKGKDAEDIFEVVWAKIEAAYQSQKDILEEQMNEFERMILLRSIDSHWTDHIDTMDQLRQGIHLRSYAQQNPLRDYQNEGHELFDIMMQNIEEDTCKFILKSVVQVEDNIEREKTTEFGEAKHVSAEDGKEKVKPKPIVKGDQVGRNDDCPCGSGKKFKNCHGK

SpSecA = SpSecA (Streptococcus pyogenes, UniProt Q99Y96); format: cell-based; details: read-out: IC50, Ion Channel activity, SpSecA
SaSecA2 = target: T2, SaSecA2 (Staphylococcus aureus, UniProt Q2FUW6); assay: ATPase activity assay (malachite green), SaSecA2; details: IC50, Intrinsic ATPase, SaSecA2, Table 1
T2 sequence (Q2FUW6 1-796): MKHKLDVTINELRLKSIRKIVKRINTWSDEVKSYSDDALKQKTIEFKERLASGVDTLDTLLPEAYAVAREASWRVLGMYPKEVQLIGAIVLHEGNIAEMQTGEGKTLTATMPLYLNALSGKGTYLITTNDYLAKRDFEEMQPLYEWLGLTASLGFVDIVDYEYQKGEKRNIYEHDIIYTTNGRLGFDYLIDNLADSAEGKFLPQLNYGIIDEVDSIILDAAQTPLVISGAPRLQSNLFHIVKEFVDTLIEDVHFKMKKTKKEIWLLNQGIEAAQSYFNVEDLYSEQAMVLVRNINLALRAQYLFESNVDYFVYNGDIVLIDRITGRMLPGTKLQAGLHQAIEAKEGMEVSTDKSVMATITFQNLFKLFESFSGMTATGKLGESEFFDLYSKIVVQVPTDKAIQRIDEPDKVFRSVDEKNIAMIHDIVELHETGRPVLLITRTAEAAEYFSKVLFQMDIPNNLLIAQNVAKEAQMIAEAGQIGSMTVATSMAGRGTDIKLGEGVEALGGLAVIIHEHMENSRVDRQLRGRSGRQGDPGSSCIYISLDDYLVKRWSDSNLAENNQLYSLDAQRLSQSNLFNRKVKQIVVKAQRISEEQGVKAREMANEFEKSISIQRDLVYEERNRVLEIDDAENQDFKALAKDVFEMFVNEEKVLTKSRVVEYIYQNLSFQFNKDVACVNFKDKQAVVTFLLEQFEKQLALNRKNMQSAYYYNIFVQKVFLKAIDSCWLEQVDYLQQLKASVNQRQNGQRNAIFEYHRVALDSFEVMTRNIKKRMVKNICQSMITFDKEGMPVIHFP

EcSecA N68 = EcSecA N68 (Escherichia coli, UniProt P10408); assay: biochemical; format: biochemical, E. coli; details: Table 1; read-out: IC50, Intrinsic ATPase, EcSecA N68
S. pyogenes, MGAS5005 = assay: MIC95, S. pyogenes MGAS5005; format: cell-based; details: Streptococcus pyogenes, MGAS5005; read-out: MIC95, S. pyogenes MGAS5005
BsSecA [1] = target: T3, BsSecA (Bacillus subtilis, UniProt P28366); assay: biochemical; format: biochemical, B. subtilis
T3 sequence (P28366 whole entry): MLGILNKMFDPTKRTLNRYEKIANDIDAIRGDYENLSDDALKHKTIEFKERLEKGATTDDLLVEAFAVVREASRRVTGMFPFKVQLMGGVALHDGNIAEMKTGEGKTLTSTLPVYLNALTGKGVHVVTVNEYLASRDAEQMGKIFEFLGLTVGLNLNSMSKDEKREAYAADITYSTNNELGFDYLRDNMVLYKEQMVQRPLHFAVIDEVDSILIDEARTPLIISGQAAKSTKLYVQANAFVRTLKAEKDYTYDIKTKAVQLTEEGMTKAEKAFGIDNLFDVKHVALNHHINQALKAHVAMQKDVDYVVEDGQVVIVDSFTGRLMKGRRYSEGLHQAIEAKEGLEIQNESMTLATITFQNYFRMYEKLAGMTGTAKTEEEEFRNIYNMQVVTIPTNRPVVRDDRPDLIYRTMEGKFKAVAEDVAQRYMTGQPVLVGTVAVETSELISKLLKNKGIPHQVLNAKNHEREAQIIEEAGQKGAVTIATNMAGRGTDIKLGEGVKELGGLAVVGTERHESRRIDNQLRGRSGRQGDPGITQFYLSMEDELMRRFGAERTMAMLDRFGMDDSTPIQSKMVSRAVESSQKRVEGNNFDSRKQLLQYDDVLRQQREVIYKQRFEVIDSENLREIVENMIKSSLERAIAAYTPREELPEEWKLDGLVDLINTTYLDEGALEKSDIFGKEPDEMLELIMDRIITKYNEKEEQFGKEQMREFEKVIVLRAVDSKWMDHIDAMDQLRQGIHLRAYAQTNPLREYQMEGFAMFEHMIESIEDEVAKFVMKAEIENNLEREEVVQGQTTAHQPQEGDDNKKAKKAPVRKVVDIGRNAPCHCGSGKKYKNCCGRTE

MsSecA = MsSecA (Mycolicibacterium smegmatis, UniProt P71533); assay: SecA-liposomes ion-channel activity in oocytes, MsSecA; format: cell-based; details: Table 1
MsSecA, sequence (P71533 whole entry): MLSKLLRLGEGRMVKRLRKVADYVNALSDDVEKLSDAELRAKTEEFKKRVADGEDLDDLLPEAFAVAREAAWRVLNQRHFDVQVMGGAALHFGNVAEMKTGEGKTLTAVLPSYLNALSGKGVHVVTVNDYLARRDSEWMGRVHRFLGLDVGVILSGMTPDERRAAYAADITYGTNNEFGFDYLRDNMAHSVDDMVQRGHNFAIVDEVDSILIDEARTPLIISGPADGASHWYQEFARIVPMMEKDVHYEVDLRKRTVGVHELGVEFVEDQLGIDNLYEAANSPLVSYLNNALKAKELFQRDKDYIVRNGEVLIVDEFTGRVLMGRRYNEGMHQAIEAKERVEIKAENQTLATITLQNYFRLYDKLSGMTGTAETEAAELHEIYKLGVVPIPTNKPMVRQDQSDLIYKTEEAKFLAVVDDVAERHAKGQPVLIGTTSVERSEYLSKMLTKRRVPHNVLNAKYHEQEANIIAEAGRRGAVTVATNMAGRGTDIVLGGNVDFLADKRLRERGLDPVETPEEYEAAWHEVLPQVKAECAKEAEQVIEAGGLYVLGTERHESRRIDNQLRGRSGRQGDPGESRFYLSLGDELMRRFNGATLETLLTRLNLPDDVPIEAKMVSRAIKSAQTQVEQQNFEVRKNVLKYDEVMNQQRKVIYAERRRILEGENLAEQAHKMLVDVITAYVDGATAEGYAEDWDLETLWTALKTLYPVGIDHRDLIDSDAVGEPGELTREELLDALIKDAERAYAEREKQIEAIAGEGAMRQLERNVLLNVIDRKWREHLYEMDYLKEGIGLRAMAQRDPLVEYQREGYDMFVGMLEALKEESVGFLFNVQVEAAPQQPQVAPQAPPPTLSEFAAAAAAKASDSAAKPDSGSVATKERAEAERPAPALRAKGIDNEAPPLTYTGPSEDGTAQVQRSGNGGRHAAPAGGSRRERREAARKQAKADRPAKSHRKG

BsSecA [2] = target: T3, BsSecA; assay: cell-based; parameters: species or system B. subtilis; details: Table 1; read-out: IC50, Ion Channel activity, BsSecA
EcSecA [3] = target: T4, EcSecA (Escherichia coli, UniProt P10408); assay: biochemical; details: IC50, Protein Translocation, Table 1
Target sequence in this assay (P0AG99 whole entry): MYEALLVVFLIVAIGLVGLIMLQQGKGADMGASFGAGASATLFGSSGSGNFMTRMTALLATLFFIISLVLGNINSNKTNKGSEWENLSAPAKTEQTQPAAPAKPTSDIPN
Target sequence in this assay (P10408 whole entry): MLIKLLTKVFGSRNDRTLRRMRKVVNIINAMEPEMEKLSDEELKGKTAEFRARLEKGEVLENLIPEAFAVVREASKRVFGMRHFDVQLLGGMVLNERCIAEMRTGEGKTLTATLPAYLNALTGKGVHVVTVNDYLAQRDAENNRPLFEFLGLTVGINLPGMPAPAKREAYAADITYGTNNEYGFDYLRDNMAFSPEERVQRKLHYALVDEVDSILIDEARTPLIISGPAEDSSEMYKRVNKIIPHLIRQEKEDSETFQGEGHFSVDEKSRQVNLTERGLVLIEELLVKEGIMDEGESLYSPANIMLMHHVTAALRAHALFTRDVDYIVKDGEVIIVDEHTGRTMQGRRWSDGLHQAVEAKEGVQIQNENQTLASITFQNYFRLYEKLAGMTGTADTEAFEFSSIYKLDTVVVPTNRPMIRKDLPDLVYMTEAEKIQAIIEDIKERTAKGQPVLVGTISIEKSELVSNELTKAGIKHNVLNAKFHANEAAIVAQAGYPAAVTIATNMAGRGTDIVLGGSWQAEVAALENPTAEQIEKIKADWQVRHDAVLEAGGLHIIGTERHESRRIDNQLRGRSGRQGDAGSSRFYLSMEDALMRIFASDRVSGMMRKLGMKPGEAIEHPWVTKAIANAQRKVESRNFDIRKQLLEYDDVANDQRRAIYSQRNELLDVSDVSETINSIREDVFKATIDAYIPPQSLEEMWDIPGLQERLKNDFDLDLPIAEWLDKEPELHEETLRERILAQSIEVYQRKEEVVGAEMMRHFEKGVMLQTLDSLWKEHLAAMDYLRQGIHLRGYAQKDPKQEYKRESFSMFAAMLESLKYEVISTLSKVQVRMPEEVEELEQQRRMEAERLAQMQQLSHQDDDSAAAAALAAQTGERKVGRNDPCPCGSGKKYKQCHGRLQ
Target sequence in this assay (P0AGA2 whole entry, further chain): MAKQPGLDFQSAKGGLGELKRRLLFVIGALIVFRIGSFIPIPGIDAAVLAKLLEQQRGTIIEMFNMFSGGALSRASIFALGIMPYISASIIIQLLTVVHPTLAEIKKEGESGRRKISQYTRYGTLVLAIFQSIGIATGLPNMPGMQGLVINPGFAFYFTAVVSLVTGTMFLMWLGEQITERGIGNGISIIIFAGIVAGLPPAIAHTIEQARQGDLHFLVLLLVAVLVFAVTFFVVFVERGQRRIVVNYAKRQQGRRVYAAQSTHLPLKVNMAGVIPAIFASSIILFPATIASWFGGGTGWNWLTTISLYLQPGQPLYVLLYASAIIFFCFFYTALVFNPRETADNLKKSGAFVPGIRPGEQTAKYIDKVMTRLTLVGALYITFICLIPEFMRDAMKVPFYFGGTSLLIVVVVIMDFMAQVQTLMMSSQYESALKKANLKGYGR
Target sequence in this assay (P0AG96 whole entry, further chain): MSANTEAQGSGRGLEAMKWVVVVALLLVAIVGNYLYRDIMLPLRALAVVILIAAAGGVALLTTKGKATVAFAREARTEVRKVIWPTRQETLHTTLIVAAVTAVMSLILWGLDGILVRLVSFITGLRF

S. aureus Mu50 = assay: Bacteriostatic effect, S. aureus Mu50; details: Staphylococcus aureus, MU50, read-out: MIC95 against drug resistant S. aureus Mu50
BsSecA2 = details: read-out: IC50, Intrinsic ATPase, BsSecA2; Table 1
PaSecA = PaSecA (Pseudomonas aeruginosa, UniProt Q9LCT3); assay: cell-based; format: cell-based; details: IC50, Ion Channel activity, PASecA, Table 1
PaSecA, sequence (Q9LCT3 whole entry): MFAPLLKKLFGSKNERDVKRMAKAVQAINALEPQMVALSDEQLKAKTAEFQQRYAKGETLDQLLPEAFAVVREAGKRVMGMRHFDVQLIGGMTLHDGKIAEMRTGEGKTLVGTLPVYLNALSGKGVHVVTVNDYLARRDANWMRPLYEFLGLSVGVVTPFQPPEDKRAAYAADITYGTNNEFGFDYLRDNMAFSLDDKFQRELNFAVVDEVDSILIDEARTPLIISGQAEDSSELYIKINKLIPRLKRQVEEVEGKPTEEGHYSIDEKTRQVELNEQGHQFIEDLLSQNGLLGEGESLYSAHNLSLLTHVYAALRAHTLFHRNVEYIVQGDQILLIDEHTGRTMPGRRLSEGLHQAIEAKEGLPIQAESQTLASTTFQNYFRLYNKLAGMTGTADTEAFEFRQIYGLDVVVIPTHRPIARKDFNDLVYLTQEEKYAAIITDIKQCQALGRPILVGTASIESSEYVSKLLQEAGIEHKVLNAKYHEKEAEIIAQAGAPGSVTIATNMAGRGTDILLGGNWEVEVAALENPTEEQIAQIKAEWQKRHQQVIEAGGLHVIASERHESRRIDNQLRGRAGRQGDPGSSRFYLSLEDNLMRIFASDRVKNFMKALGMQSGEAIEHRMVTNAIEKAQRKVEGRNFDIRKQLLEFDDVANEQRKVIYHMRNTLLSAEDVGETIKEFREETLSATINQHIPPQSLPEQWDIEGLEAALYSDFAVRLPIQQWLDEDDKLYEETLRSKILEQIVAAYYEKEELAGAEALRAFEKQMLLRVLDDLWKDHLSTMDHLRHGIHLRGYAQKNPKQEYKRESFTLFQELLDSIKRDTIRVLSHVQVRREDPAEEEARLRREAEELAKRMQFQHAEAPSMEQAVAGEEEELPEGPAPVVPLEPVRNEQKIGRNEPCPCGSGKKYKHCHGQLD

MtbSecA = MtbSecA (Mycobacterium tuberculosis, UniProt P9WGP5); assay: cell-based
EcSecA [4] = target: T4, EcSecA; details: read-out: IC50, Translocation ATPase, EcSecA; Table 1
Target sequence in this assay (P0AG99 whole entry): as the sequence (P0AG99 whole entry) above
Target sequence in this assay (P10408 whole entry): as the sequence (P10408 whole entry) above
Target sequence in this assay (P0AGA2 whole entry, further chain): as the sequence (P0AGA2 whole entry, further chain) above
Target sequence in this assay (P0AG96 whole entry, further chain): as the sequence (P0AG96 whole entry, further chain) above

EcSecA [5] = target: T4, EcSecA; details: read-out: IC50, Ion Channel activity, EcSecA; Table 1
Target sequence in this assay (P10408 whole entry): as the sequence (P10408 whole entry) above

## CSc1nc(Cl)cc(Sc2nnc(-c3cc(C(F)(F)F)cc(C(F)(F)F)c3)[nH]2)n1 [SCA-107]
BaSecA1
  IC50: 0.7 µM
SaSecA1
  IC50: 0.6 µM
SpSecA
  IC50: 0.7 µM
SaSecA2
  IC50: 50 µM
EcSecA N68
  IC50: 30 µM
S. pyogenes, MGAS5005
  MIC: 0.19 µM (≈ 0.0896 µg/mL)
BsSecA [1]
  IC50: > 200 µM
MsSecA
  IC50: 2.5 µM
BsSecA [2]
  IC50: 2.1 µM
EcSecA [3]
  IC50: 25 µM
S. aureus Mu50
  MIC: 0.5 µM (≈ 0.236 µg/mL)
BsSecA2
  IC50: 65 µM
PaSecA
  IC50: 1.3 µM
MtbSecA
  IC50: 2 µM
EcSecA [4]
  IC50: 28 µM
EcSecA [5]
  IC50: 1.6 µM
